Data on three compounds can be found in PMC6812009, “Covalent Aurora A regulation by the metabolic integrator coenzyme A” (Redox Biology, 2019).

One test deals with T1, Aurora A (active) (Homo sapiens, UniProt O14965).
T1 construct: Bacterially expressed full-length His-Aurora A was used to determine the IC50 value for CoA; made in house; host or cells: E. coli BL21 (DE3) pLysS
T1 sequence (O14965 1-403): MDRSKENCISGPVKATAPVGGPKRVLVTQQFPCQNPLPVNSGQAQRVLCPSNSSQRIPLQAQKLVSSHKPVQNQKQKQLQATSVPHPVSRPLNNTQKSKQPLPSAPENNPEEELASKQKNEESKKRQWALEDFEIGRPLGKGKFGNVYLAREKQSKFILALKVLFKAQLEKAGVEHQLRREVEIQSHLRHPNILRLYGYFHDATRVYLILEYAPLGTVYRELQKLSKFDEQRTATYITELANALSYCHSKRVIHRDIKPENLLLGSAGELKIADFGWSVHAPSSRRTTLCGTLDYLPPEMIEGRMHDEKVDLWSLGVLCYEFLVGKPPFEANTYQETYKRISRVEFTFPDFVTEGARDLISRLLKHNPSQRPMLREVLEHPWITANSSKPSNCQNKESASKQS
Put plainly: In vitro Aurora A kinase assay (γ33P-ATP incorporation into myelin basic protein). It counts as biochemical. On the procedure: (§1) Profiling of 117 protein kinases with CoA, dpCoA and ADP was carried out at the International Centre for Protein Kinase Profiling at the University of Dundee. Each compound was tested in vitro, in duplicate, at 100 μM final concentration using recombinant kinases, model substrates and optimal concentrations of ATP. Bacterially expressed full-length His-Aurora A was used to determine the IC50 value for CoA (in the presence or absence of DTT), dpCoA, ADP and desulfo-CoA. The assay was performed in the presence of 5 μM competing ATP. To examine whether the inhibitory effect of CoA on Aurora A is modulated by TPX2, IC50 values for CoA were also generated in the presence and absence of 1 μg TPX2 (residues 1–43) fragment.
Aurora A kinase activity was assayed by measuring incorporation of γ^33P-ATP into myelin basic protein (Sigma). Purified recombinant protein (100 ng) was incubated at room temperature for 30 min in a total volume of 15 μl containing 50 mM HEPES pH 7.5, 10 mM MgCl2, 1 mM EGTA, 0.05% Brij-35, 0.5 mg/ml myelin basic protein, and 5 μM γ^33P-ATP (100–10,000 dpm/pmol). The reaction was stopped by spotting the reaction mixture onto squares of P81 phosphocellulose ion exchange paper (Whatmann), which were then immersed in 1.5% (v/v) phosphoric acid. After washing twice in 1% phosphoric acid followed by two washes in distilled water, the papers were air dried and radioactivity was counted by a scintillation counter and recorded by Quantasmart version 2.03.

In another test the target is JAK2 (Homo sapiens, UniProt O60674). The test can be described thus: Kinase profiling screen (radioactive filter-binding assay). In kind it is biochemical. The note with it: 100 μM compound, 5 μM ATP; read-out: Kinase activity, % of activity in the absence of inhibitor. An outline of the steps:
(§2)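 Panel of 117 recombinant kinases; CoA, dpCoA, ADP each at 100 μM final, duplicates; model substrates, ATP at optimal level.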

The next test deals with PAK5 (Homo sapiens, UniProt Q9P286). The test is described as above. In kind it is biochemical. As to conditions: 100 μM compound, 20 μM ATP; read-out: Kinase activity, % of activity in the absence of inhibitor. An outline of the steps:
as §2

In another test the target is MST4 (Homo sapiens, UniProt Q9P289). The description is as above. The note with it: 100 μM compound, 20 μM ATP; read-out: Kinase activity, % of activity in the absence of inhibitor. It counts as biochemical. In outline:
as §2

A further test has as its target S6K1 (Homo sapiens, UniProt P23443). The test is described as above. It counts as biochemical. As to conditions: 100 μM compound, 20 μM ATP; read-out: Kinase activity, % of activity in the absence of inhibitor. An outline of the steps: as §2
Another test concerns VEGFR. The description is as above. In kind it is biochemical, human. The note with it: 100 μM compound, 20 μM ATP. How it is done:
as §1

The target of test [1] is T2, Cys290/393Ala Aurora A mutant (Homo sapiens, UniProt O14965, C290A/C393A).
T2 construct: made in house
T2 sequence (O14965 whole entry C290A/C393A): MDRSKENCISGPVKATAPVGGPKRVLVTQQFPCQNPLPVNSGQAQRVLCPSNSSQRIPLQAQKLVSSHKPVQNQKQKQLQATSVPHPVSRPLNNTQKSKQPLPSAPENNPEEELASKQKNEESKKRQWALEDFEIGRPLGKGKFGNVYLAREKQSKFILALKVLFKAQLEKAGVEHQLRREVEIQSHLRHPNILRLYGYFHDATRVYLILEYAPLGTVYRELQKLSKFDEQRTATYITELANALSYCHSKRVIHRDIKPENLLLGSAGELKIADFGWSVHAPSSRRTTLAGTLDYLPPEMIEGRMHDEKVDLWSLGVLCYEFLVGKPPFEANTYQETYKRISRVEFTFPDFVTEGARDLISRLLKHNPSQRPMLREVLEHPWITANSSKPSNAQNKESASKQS
Put plainly: In vitro CoAlation assay. In kind it is binding. On the procedure:
(§3) For CoAlation assays, 0.5 μg of purified recombinant preparations of wild type and mutant forms of His-Aurora A (Cys290Ala; Cys393Ala, Cys290/393Ala, Thr217Glu) and His-Aurora B (Glu161Thr) were incubated with a mixture of oxidised and reduced forms of CoA (CoASH and CoASSCoA, 1 mM final) in 20 mM Tris-HCl, pH 7.5 for 30 min at RT. The reaction was stopped by adding SDS gel-loading buffer without DTT, but containing 10 mM NEM. To examine whether binding of the 3′-phosphate ADP moiety of CoA to the Aurora A ATP binding-pocket co-ordinates the pantetheine thiol for disulfide bond formation with Cys 290, the in vitro CoAlation assay was carried out with 100 μM CoA and increasing concentrations of ATP (0–10 mM).

A further test addresses T3, wild-type Aurora A (Homo sapiens, UniProt O14965).
T3 construct: For enzyme and DSF assays, full-length human Aurora A and Aurora B and 1–43 TPX2 were produced; made in house; host or cells: E. coli
Put plainly: In vitro CoAlation assay. In kind it is binding. How it is done:
as §3

Test [2] has as its target T4, Thr217Glu mutant of Aurora A (Homo sapiens, UniProt O14965, T217E).
T4 construct: For enzyme and DSF assays, full-length human Aurora A and Aurora B and 1–43 TPX2 were produced; made in house; host or cells: E. coli
Put plainly: In vitro CoAlation assay. It counts as binding. How it is done: as §3

Another test addresses Aurora B (Homo sapiens, UniProt Q96GD4). Put plainly: In vitro CoAlation assay. In kind it is binding. The note with it: optimal Aurora A assay conditions. How it is done:
as §3

Test [3] deals with T5, Cys290Ala Aurora A mutant (Homo sapiens, UniProt O14965, C290A).
T5 construct: For enzyme and DSF assays, full-length human Aurora A and Aurora B and 1–43 TPX2 were produced; made in house; host or cells: E. coli BL21 (DE3) pLysS
T5 sequence (O14965 whole entry C290A): as the sequence (O14965 whole entry C290A/C393A) above, with A393C counted along it
The test can be described thus: In vitro CoAlation assay. In kind it is binding. On the procedure:
as §3

A further test concerns the target T6, Aurora B mutant (Homo sapiens, UniProt Q96GD4, E161T).
T6 construct: For enzyme and DSF assays, full-length human Aurora A and Aurora B and 1–43 TPX2 were produced; made in house; host or cells: E. coli BL21 (DE3) pLysS
Put plainly: In vitro CoAlation assay. It counts as binding. On the procedure: as §3

For another test, the target named is IR (Homo sapiens, UniProt P06213). The test can be described thus: Kinase profiling screen (radioactive filter-binding assay). In kind it is biochemical. The note with it: 100 μM compound, 20 μM ATP; read-out: Kinase activity, % of activity in the absence of inhibitor. An outline of the steps:
as §2

Another test deals with TrkA (Homo sapiens, UniProt P04629). The test is described as above. The note with it: 100 μM compound, 20 μM ATP; read-out: Kinase activity, % of activity in the absence of inhibitor. It counts as biochemical. In outline: as §2
A further test concerns the target IRR (Homo sapiens, UniProt P14616). The test is described as above. As to conditions: 100 μM compound, 5 μM ATP; read-out: Kinase activity, % of activity in the absence of inhibitor. In kind it is biochemical. An outline of the steps:
as §2

Another test deals with mouse oocytes. Put plainly: Microinjection of mouse oocytes, spindle formation and chromosome alignment. It counts as cell-based. As to conditions: 17 h after GV release; for Disruption of bipolar spindle formation and chromosome alignment: injected with 3 mM compound. On the procedure:
Mouse oocytes arrested at the GV stage were injected with different concentrations of CoA (0.15–5 mM). Since the commercial preparation of CoA used for microinjection contained 3 mol of lithium ions per mole of CoA, control oocytes were injected with an equivalent amount of LiCl. In a separate study, oocytes were injected with 3 mM CoA, ADP, AMP, 3′-5′-ADP and pantetheine. To examine the effect of injected compounds on spindle formation, oocytes were fixed 17 h after GV release and stained for alpha-tubulin (green) and DNA (blue).

Setting [4] is: 5 μM competing ATP, read-out: Aurora A (active) IC50 (μM), activity assay.

A word on the IC50: it is the concentration needed to halve the response being measured.

Read-outs that look alike come from different tables or passages of the source.

Sequence of JAK2 (O60674 whole entry): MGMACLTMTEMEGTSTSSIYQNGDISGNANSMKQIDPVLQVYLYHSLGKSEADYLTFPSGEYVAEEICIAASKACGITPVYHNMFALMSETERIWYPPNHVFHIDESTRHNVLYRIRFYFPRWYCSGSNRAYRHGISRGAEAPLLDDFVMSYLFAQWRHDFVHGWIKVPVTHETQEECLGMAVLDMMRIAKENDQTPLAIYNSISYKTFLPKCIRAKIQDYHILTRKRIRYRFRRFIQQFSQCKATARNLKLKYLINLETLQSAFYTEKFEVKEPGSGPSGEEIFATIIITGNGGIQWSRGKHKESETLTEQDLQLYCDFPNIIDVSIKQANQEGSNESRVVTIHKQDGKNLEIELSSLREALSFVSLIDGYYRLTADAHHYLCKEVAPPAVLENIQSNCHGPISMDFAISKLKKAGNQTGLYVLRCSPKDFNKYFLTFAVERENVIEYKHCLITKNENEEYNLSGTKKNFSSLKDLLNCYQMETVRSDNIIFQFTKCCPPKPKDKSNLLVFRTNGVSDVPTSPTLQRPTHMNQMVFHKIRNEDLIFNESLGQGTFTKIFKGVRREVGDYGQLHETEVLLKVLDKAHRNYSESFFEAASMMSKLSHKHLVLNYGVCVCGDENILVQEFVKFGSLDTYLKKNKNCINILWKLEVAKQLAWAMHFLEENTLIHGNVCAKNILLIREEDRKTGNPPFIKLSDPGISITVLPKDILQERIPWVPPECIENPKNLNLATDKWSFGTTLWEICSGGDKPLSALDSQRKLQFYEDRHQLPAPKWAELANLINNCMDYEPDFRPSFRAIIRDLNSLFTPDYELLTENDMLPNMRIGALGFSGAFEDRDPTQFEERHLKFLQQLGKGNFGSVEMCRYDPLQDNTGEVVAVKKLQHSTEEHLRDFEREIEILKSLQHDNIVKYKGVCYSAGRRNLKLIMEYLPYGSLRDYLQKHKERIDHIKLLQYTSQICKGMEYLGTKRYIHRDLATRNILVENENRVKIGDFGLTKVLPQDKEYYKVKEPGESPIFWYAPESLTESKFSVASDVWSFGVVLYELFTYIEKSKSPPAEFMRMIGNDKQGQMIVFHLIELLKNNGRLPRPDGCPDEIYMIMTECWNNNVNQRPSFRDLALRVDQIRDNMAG
Sequence of S6K1 (P23443 whole entry): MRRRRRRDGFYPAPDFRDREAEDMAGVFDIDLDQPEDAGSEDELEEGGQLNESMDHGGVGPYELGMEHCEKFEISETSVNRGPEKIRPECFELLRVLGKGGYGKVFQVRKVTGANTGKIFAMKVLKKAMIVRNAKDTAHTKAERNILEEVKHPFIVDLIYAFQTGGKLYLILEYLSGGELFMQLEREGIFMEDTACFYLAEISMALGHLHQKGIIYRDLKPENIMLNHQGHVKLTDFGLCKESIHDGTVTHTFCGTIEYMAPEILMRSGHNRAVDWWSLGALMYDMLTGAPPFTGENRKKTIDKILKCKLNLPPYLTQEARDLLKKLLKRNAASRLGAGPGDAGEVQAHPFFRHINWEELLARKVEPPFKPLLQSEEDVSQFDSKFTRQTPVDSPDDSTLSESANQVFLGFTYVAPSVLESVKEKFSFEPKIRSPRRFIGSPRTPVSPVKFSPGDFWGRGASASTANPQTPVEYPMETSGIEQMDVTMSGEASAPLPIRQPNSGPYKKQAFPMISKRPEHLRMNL
Sequence of PAK5 (Q9P286 whole entry): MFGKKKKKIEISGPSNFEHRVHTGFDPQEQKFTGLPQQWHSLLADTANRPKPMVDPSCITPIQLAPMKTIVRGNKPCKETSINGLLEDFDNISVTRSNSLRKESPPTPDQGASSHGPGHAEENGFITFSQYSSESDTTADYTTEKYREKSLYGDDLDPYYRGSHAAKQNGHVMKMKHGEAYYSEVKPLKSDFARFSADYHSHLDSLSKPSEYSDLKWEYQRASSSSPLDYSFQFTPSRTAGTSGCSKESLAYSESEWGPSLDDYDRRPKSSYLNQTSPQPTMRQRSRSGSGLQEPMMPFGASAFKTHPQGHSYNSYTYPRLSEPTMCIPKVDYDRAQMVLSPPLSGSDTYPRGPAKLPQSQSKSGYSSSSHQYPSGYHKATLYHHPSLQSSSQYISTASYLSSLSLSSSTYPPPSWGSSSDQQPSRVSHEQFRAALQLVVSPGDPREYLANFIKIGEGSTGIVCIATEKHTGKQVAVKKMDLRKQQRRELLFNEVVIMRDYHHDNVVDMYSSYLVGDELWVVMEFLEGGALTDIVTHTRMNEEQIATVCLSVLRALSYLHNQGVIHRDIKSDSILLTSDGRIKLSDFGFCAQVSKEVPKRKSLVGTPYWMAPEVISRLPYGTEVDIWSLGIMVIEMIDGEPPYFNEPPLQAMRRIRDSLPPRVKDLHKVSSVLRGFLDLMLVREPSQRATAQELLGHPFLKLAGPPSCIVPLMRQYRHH
Sequence of MST4 (Q9P289 whole entry): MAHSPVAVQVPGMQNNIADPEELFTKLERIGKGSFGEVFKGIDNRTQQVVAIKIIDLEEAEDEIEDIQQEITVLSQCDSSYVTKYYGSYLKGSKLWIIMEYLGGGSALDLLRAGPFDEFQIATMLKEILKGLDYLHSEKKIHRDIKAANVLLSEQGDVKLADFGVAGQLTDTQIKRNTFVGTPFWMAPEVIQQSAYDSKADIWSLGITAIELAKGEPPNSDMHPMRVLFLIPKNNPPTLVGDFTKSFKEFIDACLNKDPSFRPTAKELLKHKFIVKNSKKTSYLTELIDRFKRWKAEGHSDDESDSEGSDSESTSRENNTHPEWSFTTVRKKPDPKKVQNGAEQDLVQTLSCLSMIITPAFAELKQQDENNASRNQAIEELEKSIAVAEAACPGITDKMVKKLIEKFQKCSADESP
T6 sequence (Q96GD4 whole entry E161T): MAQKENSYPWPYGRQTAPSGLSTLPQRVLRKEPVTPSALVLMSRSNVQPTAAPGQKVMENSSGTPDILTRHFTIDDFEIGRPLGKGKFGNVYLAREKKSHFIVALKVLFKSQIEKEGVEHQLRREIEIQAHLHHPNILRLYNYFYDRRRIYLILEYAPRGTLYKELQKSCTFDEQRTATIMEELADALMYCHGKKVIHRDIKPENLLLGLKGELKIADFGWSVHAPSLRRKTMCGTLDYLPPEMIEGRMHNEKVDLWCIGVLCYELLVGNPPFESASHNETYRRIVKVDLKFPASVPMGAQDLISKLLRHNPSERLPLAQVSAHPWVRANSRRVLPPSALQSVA
Sequence of Aurora B (Q96GD4 whole entry): as the sequence (Q96GD4 whole entry E161T) above, with T161E counted along it
T4 sequence (O14965 whole entry T217E): as the sequence (O14965 whole entry C290A/C393A) above, with T217E, A290C, A393C counted along it
Sequence of IR (P06213 28-1382): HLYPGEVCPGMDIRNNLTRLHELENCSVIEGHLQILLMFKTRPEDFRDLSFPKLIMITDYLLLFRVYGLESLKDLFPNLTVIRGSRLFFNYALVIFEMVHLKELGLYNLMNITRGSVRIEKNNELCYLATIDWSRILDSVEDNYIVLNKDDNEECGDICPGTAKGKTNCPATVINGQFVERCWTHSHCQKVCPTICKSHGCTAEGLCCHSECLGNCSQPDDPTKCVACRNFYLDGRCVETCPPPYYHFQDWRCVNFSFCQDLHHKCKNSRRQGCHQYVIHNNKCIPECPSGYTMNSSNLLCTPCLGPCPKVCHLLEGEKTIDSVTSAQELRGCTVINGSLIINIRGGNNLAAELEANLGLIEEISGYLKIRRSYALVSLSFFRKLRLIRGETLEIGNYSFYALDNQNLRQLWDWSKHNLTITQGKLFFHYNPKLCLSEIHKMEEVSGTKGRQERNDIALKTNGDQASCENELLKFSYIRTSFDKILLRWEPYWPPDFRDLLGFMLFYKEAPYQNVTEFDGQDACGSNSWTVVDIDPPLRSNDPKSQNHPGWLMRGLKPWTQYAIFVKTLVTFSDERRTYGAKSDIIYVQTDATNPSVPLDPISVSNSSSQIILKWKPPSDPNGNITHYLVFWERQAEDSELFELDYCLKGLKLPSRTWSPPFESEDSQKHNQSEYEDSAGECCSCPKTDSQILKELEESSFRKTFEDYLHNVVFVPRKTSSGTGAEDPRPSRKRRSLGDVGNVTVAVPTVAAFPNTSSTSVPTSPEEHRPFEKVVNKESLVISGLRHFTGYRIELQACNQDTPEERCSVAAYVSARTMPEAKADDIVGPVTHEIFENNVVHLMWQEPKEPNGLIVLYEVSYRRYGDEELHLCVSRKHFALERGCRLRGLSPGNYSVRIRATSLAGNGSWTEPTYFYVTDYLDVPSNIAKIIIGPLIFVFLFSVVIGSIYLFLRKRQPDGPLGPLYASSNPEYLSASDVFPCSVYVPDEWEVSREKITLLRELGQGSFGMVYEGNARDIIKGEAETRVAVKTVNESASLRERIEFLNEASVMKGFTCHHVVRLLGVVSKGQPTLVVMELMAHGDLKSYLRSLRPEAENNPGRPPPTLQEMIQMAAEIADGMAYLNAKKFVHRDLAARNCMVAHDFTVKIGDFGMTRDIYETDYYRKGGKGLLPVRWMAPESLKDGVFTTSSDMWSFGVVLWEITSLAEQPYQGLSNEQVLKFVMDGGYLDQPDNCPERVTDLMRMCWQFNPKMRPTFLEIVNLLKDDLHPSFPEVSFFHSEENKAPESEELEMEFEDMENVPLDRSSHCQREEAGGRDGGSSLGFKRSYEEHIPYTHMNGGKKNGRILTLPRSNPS

For the compound `CC(C)(COP(=O)(O)OP(=O)(O)OCC1OC(n2cnc3c(N)ncnc32)C(O)C1O)C(O)C(=O)NCCC(=O)NCCS` (centres unmarked) [dpCoA, dephospho-CoA], on Aurora A (active) (setting [4]), the IC50 is 17 µM. Further, the activity at 100 µM at JAK2 is 62.5%; on PAK5, 86%; at MST4 it was 89.7%; at S6K1, 30.5%.
Consider `CC(C)(COP(=O)(O)OP(=O)(O)OC[C@H]1O[C@@H](n2cnc3c(N)ncnc32)[C@H](O)[C@@H]1OP(=O)(O)O)[C@@H](O)C(=O)NCCC(=O)NCCS` [CoA, Coenzyme A], for which the IC50 on Aurora A (active) (5 μM ATP, 1 mM DTT, read-out: IC50, Aurora A kinase activity in the presence of DTT) was 47 µM; at Aurora A (active) (5 μM ATP, absence of DTT, read-out: IC50, Aurora A kinase activity) it was roughly 5 µM; on Aurora A (active) (setting [4]), 5 µM. Also, the “TPX2-induced kinase activation after pre-incubation of Aurora A with CoA” value on Aurora A (active) (100 μM CoA pre-incubation, DTT-sensitive) is listed as “attenuated”. Further, the “Inhibitory effect on Aurora A in the presence of TPX2 1–43 fragment” value at Aurora A (active) (presence of TPX2 (residues 1–43), serial dilutions of CoA) was “completely abrogated the inhibitory effect”. Besides, in the test with VEGFR, the “Kinase activity, % of activity in the absence of inhibitor” value is given as 81.0%. The “Covalent modification (binding) by CoA” value in test [1] was “no binding was detected”. Besides, the “In vitro CoAlation of Aurora A” value at wild-type Aurora A was “strong CoAlation”. The “CoA binding compared to the wild-type kinase” value in test [2] is listed as “significantly reduced CoA binding”. Moreover, the “In vitro CoAlation of Aurora B” value at Aurora B is on record as “CoAlated at an extremely low level”. In [3], the “Reduction of covalent modification by CoA in comparison to wild-type Aurora A” value is greater than 95%. Besides, the “CoA binding (in vitro CoAlation)” value on Aurora B mutant is “strong binding”. Besides, the activity at 100 µM on JAK2 is 106%; on IR, 100%; on PAK5 it was 70.6%; at MST4, 107%; at S6K1, 89.1%; at TrkA it was 104%. Further, on IRR, the activity at 100 µM worked out at 92%. The “Disruption of bipolar spindle formation and chromosome alignment” value in the test with mouse oocytes is “disrupted both bipolar spindle formation and chromosome alignment”. Also, the “Number of oocytes with atypical spindles and misaligned chromosomes” value with mouse oocytes (microinjection of 0.15–5 mM CoA, dose-dependent) is listed as “markedly increased”.
Take `Nc1ncnc2c1ncn2C1OC(COP(=O)(O)OP(=O)(O)O)C(O)C1O` (centres unmarked) [ADP]: the IC50 at Aurora A (active) (setting [4]) amounted to 54 µM. Further, the activity at 100 µM is 7.1% at JAK2, 79.5% on PAK5, 56.9% at MST4 and 35.5% at S6K1. The “Disruption of bipolar spindle formation and chromosome alignment” value in the test on mouse oocytes was “not”.
